In the supplement of paper PMC8967900:

Experiments:
Assay in all cases: selective drug sensitivity score (sDSS, relative to normal bone marrow) (sDSS (score)); higher = more potent and effective on the cell line relative to normal bone marrow cells
Details in all cases: 72 h
KASUMI-9 = test system: KASUMI-9
MOLT-14 = test system: MOLT-14
380 = test system: 380
COG-LL-402h = test system: COG-LL-402h
RCH-ACV = test system: RCH-ACV
REH = test system: REH
HPB-ALL = test system: HPB-ALL
KASUMI-2 = test system: KASUMI-2
COG-LL-394h = test system: COG-LL-394h
DND-41 = test system: DND-41
CCRF-CEM = test system: CCRF-CEM
ALL-SIL = test system: ALL-SIL
MOLT-16 = test system: MOLT-16
NALM-16 = test system: NALM-16
KASUMI-10 = test system: KASUMI-10
COG-LL-355h = test system: COG-LL-355h
697 = test system: 697
NALM-6 = test system: NALM-6
MHH-CALL-4 = test system: MHH-CALL-4
RPMI-8402 = test system: RPMI-8402
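Further: ALL cell lines in 384-well plates, five doses spanning 10,000-fold, each plate scaled between vehicle and 100 µmol/L benzalkonium chloride controls, sDSS an adapted area-under-curve metric.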

| Compound | selective drug sensitivity score (KASUMI-9) | selective drug sensitivity score (MOLT-14) | selective drug sensitivity score 380 | selective drug sensitivity score (COG-LL-402h) | selective drug sensitivity score (RCH-ACV) | selective drug sensitivity score (REH) | selective drug sensitivity score (HPB-ALL) | selective drug sensitivity score (KASUMI-2) | selective drug sensitivity score (COG-LL-394h) | selective drug sensitivity score (DND-41) | selective drug sensitivity score (CCRF-CEM) | selective drug sensitivity score (ALL-SIL) | selective drug sensitivity score (MOLT-16) | selective drug sensitivity score (NALM-16) | selective drug sensitivity score (KASUMI-10) | selective drug sensitivity score (COG-LL-355h) | selective drug sensitivity score 697 | selective drug sensitivity score (NALM-6) | selective drug sensitivity score (MHH-CALL-4) | selective drug sensitivity score (RPMI-8402) |
| --- | --- | --- | --- | --- | --- | --- | --- | --- | --- | --- | --- | --- | --- | --- | --- | --- | --- | --- | --- | --- |
| CNC(=O)c1ccc(C)c(-n2c(C)cc(OCc3ccc(F)cc3F)c(Br)c2=O)c1 (top concentration 1000 nM) | 2.3 | 0 | 0 | 0 | 7.4 | 4 | 4.6 | 0 | 0 | 0 | 0 | 0 | 0 | 0 | 0 | 0 | 2 | 0.1 | 5 | 0 |
| CONC(=O)c1ccccc1Nc1cc(Nc2cc(C)nn2C(C)C)ncc1Cl (top concentration 1000 nM) | -0.94 | -0.94 | 1.16 | -0.94 | -0.94 | -0.94 | -0.94 | -0.94 | -0.94 | 0.56 | -0.94 | 0.86 | -0.94 | -0.94 | -0.94 | 1.66 | -0.94 | 0.56 | -0.94 | -0.94 |
| CCOc1ccn(-c2ccc(F)cc2)c(=O)c1C(=O)Nc1ccc(Oc2ccnc(N)c2Cl)c(F)c1 (top concentration 2500 nM) | 0 | 0 | 0 | 0 | 1 | 1.3 | 0 | 0 | 0.8 | 0 | 0.6 | 8 | 0 | 1 | 2.6 | 0 | 0.4 | 2 | 0 | 0.4 |
| CC[C@@H]1[C@H](F)C(=O)N[C@@H]1COc1nccc2cc(C(N)=O)c(OC)cc12 (top concentration 10000 nM) | 0.08 | 1.38 | -1.32 | 3.08 | 2.58 | -1.32 | -1.32 | -1.32 | 0.38 | -1.32 | 1.58 | -1.32 | 0.98 | -1.32 | 3.68 | 1.28 | 1.88 | 4.48 | -0.92 | 1.38 |
| C[C@H]1C[C@@H](n2c(Nc3ccc(OC(F)(F)F)cc3)nc3cc(CCC(=O)O)ccc32)CC(C)(C)C1 (top concentration 10000 nM) | 0.66 | 2.96 | -0.14 | -0.14 | -0.14 | 0.36 | 5.56 | -0.14 | -0.14 | -0.14 | 1.56 | 1.06 | 5.66 | -0.14 | -0.14 | 2.16 | -0.14 | 0.16 | -0.14 | 1.46 |
| O=C(NCc1ccncc1)C12CC3CC(C1)CC(c1ccc(Cl)cc1)(C3)C2 (top concentration 50000 nM) | 4.28 | 1.38 | 0.38 | 0.08 | 4.08 | 5.18 | 1.88 | -0.42 | 2.88 | 4.08 | 2.28 | 2.08 | 1.58 | -0.72 | 0.98 | 0.48 | 3.78 | -0.22 | 2.78 | 2.68 |
| O=C(O)c1ccc(CN2CCC(CN[C@@H]3C[C@H]3c3ccccc3)CC2)cc1 (top concentration 100000 nM) | -0.62 | -0.62 | -0.62 | -0.62 | -0.62 | -0.22 | -0.62 | -0.62 | -0.62 | -0.62 | -0.02 | -0.62 | 0.28 | -0.62 | -0.62 | 0.58 | -0.42 | -0.62 | 0.58 | -0.22 |
| COc1cc(N2CCN(C)CC2)ccc1Nc1nccc(-c2cn(C)c3cnccc23)n1 [AZ191] (top concentration 10000 nM) | 1.58 | -1.32 | -2.42 | -0.22 | 2.38 | 0.48 | -4.72 | -5.12 | -0.72 | 0.08 | -1.42 | -1.52 | -1.32 | -3.72 | 5.38 | -0.02 | 1.08 | -1.72 | 1.98 | 0.18 |
| Cc1cc(Nc2nc(N[C@@H](C)c3ncc(F)cn3)ncc2Cl)[nH]n1 [AZD1480] (top concentration 1000 nM) | -0.68 | -4.28 | -0.58 | -3.98 | -2.18 | -4.08 | -3.48 | -4.28 | -4.18 | 0.72 | -3.98 | -0.28 | -4.28 | -4.28 | -0.48 | 0.42 | -3.78 | -3.58 | -0.78 | -3.18 |
